Measured values reported in patent US10201610B2, “Interference peptides and use thereof” (The University of Western Australia, priority 2014, dated 2019).
Ends that are not written are not given here.

Key:
[1] = tested on: caspase 3 activity in SUM149PT cells; test: Caspase-3 colorimetric assay in SUM149PT cells; type: cell-based, human; conditions: 8 hours, compared with non-treated or iPep624ΔHEX-treated cells
Text: The EN1-iPeps and iPep controls were first tested in SUM149PT cells carrying high EN1 expression. Cells were first treated with a full-length 29-mer peptide (iPep624) comprising the N-terminal, less conserved amino acid sequences, the hexamotif, and the C-terminal tail. As a control, the inventors generated the iPep624ΔHEX in which the hexamotif was mutated from the wild type (wt) WPAWVY (SEQ ID NO: 13) to the GAAGAG (SEQ ID NO: 15) sequence. These mutations were expected to dramatically abolish the activity of the peptide. Both peptides were included in the culture medium of the basal cancer cells in increasing (0-100 μM) concentrations and incubated for 8 hours at 37° C. Treated cells were first analyzed using the Cell Titer Glo assay, which monitors metabolic viability. […] This calculated value of IC50 is in the range of concentrations observed with other peptides delivered with CPPs.
Detection of apoptosis was performed with a Caspase-3 colorimetric assay (Sigma-Aldrich, St Louis, Mo.) according to the manufacturer's instructions.

SUM149PT cells = test: Hoechst staining of apoptotic nuclei in SUM149PT cells; type: cell-based, human; conditions: 8 hours, compared with non-treated or iPep624ΔHEX-treated cells
Text: FIG. 3 Design of an EN1-specific interference peptide (EN1-iPep). (a) Molecular model of HOXA9 and PBX1 tertiary complex formation with the DNA (PDB: 1PUF). HOXA9 (hexapeptide “donor”) is shown in green; PBX (“partner”) in blue. The N-terminal peptide of HOXA9 (magenta) is essential to make contact with the DNA minor groove, as well as to stabilize the binding of HOXA9 with PBX1. The conserved tryptophan residue (W, arrow) is shown within the hexapeptide and it is responsible for anchoring the loop in PBX1. HD=Homeodomain. (b) A multiple alignment of the EN1-iPeps across species, with the consensus sequence of the iPep indicated below. […] Cells were treated for 8 hours and cell viability assessed by Cell Titer Glo assay (CTG). […] (e) Caspase 3 activity in SUM149PT cells measured after eight hours of iPep624 (SEQ ID NO: 5) or iPep624ΔHEX […]) treatment. […] Statistical significance was analyzed using the Student t-Test (*** p<0.001). […] Histogram represents the quantification of Hoechst positive cells per field of view at 40× magnification. […] Cell viability was assessed by Cell Titer Glo (CTG) assay and percentage of survival (%) was normalized to the control treated cells. […]
The EN1-iPeps and iPep controls were first tested in SUM149PT cells carrying high EN1 expression. […] Treated cells were first analyzed using the Cell Titer Glo assay, which monitors metabolic viability. […]

[2] = molecular target: T1, Glutamyl-Prolyl tRNA synthetase (EPRS) (Homo sapiens, UniProt P07814); test: Affinity capture immunoprecipitation with biotinylated iPeps, EPRS detection; type: binding; conditions: biotinylated iPep as bait, versus control peptide iPep624ΔHEX
T1 construct: endogenous in cells; host or cells: SUM149PT total protein extract
T1 sequence (P07814 whole entry): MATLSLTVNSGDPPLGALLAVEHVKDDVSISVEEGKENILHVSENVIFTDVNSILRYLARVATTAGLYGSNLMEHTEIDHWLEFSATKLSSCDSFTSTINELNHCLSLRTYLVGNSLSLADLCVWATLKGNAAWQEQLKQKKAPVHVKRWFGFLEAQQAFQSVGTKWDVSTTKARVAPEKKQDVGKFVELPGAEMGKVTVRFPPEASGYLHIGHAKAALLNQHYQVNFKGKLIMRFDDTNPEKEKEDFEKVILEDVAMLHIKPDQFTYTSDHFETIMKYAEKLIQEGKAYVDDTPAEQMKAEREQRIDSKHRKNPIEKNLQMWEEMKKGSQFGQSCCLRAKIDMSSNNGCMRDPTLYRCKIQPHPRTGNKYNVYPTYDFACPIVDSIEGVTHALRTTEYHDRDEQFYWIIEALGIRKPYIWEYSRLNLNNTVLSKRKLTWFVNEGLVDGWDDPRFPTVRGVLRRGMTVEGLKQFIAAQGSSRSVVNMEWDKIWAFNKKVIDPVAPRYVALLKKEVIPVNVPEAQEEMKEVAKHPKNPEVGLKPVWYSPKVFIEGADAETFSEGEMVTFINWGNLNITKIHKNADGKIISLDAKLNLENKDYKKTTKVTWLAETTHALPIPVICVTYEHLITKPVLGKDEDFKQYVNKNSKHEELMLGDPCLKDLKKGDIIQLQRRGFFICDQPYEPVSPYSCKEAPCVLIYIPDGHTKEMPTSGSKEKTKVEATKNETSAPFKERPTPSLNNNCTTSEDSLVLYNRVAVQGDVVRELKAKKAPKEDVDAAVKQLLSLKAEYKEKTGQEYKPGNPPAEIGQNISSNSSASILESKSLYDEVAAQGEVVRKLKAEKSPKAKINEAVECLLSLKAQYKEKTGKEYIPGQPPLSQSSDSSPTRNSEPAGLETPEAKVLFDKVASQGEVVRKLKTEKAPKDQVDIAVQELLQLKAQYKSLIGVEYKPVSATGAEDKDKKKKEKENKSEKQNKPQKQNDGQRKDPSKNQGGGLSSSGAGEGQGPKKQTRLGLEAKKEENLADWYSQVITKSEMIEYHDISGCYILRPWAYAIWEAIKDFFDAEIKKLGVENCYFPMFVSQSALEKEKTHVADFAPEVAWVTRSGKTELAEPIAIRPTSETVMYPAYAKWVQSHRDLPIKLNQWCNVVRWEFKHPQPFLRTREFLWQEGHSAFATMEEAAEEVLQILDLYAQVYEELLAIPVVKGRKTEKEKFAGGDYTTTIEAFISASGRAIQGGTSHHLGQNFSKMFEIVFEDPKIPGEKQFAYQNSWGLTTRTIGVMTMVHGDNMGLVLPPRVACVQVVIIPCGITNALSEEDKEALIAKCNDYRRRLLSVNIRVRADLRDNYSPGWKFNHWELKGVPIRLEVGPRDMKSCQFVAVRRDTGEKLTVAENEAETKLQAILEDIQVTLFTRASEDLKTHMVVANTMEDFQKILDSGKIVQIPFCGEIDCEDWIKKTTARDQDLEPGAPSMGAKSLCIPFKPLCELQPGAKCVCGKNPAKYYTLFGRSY
Text: To investigate the binding partners of the iPeps in cancer cells, the inventors carried out affinity capture immunoprecipitation experiments using the biotinylated active iPep624 as bait, and the iPep624ΔHEX as negative control. They used total protein extracts from SUM149PT cells to capture endogenous proteins able to bind these peptides in vitro. Elutes were loaded in a 1D-SDS PAGE gel to visualize the enrichment of individual proteins. […] In addition, overexpression of EN1 cDNA into two different breast cell lines confirmed the interaction of the full length EN1 with the endogenous EPRS inside the cells (FIG. 6c). […]
(§1) The iPep624 and iPep624ΔHEX were coupled to a C-terminal biotin and immobilized in streptavidin-coated beads. […] Detection was performed with ECL Detection System (GE Healthcare) and quantitated using Image J v1.46 (ImageJ, NCBI).
Proteins were eluted from the streptavidin beads coated with biotinylated iPep624 or iPep624ΔHEX, resuspended with SDS PAGE sample buffer and applied to SDS-PAGE (10% acrylamide; FIG. 10). Gels were stained with Coomassie brilliant blue and select bands unique to the EN1 immunoprecipitates were excised, digested with trypsin, and the peptides were extracted and analyzed using a MALDI-TOF/TOF mass spectrometer (AB Sciex 4800 Plus). […]

PAX6 = molecular target: T2, PAX6 (Homo sapiens, UniProt P26367); test: Immunoprecipitation and western blotting of TFHDs from SUM149PT extracts; type: binding; conditions: versus control peptide
T2 construct: endogenous in cells; host or cells: SUM149PT total protein extract
T2 sequence (P26367 whole entry): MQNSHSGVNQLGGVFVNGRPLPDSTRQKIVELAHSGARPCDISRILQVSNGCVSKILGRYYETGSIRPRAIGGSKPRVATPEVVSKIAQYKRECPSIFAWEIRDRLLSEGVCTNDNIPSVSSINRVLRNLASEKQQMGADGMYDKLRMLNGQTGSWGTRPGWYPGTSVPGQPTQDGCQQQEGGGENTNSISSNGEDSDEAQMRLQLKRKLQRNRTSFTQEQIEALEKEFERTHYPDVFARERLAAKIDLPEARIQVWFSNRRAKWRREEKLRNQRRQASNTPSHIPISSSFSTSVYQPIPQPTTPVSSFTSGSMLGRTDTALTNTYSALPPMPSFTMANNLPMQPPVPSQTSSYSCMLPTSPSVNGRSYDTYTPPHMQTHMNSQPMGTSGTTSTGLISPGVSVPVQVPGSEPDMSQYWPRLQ
Text: To investigate the binding partners of the iPeps in cancer cells, the inventors carried out affinity capture immunoprecipitation experiments using the biotinylated active iPep624 as bait, and the iPep624ΔHEX as negative control. They used total protein extracts from SUM149PT cells to capture endogenous proteins able to bind these peptides in vitro. Elutes were loaded in a 1D-SDS PAGE gel to visualize the enrichment of individual proteins. […] In addition, overexpression of EN1 cDNA into two different breast cell lines confirmed the interaction of the full length EN1 with the endogenous EPRS inside the cells (FIG. 6c). To ascertain whether some downstream well-known effectors of EPRS were also differentially regulated by the iPeps, we performed real time PCR to detect mRNA levels of COLA1, COLA2, S1004A and DDIT3 (CHOP). […] COLA1 and COLA2 encode collagen proteins highly enriched by the amino acid proline and S1004A is a protein involved in metastasis and fibrosis. […] In contrast, the amino acid stress factor DDIT3 is stimulated upon EPRS inhibition. […]
as §1

- binding of EPRS from SUM149PT extracts [2]: preferential binding interaction
- interaction with PAX6 (PAX6): specific interactions
Sequence: KKKRKVTDSQQPLVWPAWVYCTRYSDRPS [iPep624]
- caspase 3 activity [1]: significantly higher
- number of apoptotic nuclei (SUM149PT cells): significantly higher
